The values that follow come from patent US20240158418A1 (C4 Therapeutics, Inc., priority 2021, published 2024).

In one assay the target is T1, mutant EGFR-L858R-T790M (Homo sapiens, UniProt P00533, L858R/T790M).
T1 construct: female BALB/c nude mice bearing NCI-H1975 NSCLC tumors; from tissue; host or cells: NCI-H1975 subcutaneous xenograft tumours from female BALB/c nude mice
The assay is described as follows: Mutant EGFR protein in NCI-H1975 tumors after single oral dose (western blot). In kind it is in vivo, female BALB/c nude mice. How it is done:
Compound 1 was administered as a single oral (PO) dose at 10, 25, or 50 mg/kg to female BALB/c nude mice with NCI-H1975 tumors. At 4h, 6h or 12h tumors were harvested and the protein expression of mutant EGFR-L858R and phospho-EGFR was measured by western blot.
A xenograft study was conducted in female BALB/c nude mice bearing NCI-H1975 NSCLC tumors. Female nude mice were inoculated subcutaneously in the right flank with 5×10^6 tumors cells in 0.1 mL of PBS. Tumor volume was measured twice weekly in two dimensions using calipers, and volume (mm^3) was calculated using the formula: V=0.5 a×b2 where a and b are the long and short diameters of the tumor in mm, respectively. […]
All agents were administered to mice bearing NCI-H1975 tumors on day 0 as a single oral (PO) dose. […] Protein concentration was quantified using a Pierce™ BCA Protein Assay Kit, samples were reduced, and equal protein amounts were then loaded onto a western blot gel for analysis. Tumors were analyzed for EGFR Receptor L858R Mutant Specific (CST, 3197) or Phospho-EGFR Receptor Tyr1068 (CST, 2234) expression. The intensity of individual bands was measured for data analysis using Image Studio software. Protein expression was quantitated in relation to the reference protein, alpha-tubulin, to control for total protein concentration. […]

A further assay relates to NCI-H1975 cells. The assay is described as follows: Global proteomics (TMT), NCI-H1975. In kind it is cell-based, human. As for the experimental part:
Each cell line was treated in duplicate with either DMSO or Compound 1 (final concentration 300 nM) for 6 hours in an incubator at 37° C. with 5% CO2. After 6 hour incubation, cells were harvested, washed twice with PBS, and snap frozen in liquid nitrogen. Samples were re-suspended in lysis buffer [8 M urea, 50 mM HEPS (pH 8.5), 50 mM NaCl, 1× protease inhibitor cocktail] and lysed by sonication at 4° C. with 85% amplitude in a pulse setting with 30 seconds on and 30 seconds off for a total sonication time of 5 minutes. Lysates were centrifuged at maximum speed for 10 minutes at 4° C. and the supernatant collected, reduced for 1 hour at room temperature with 5 mM TCEP, and the cysteine residues were then alkylated with 15 mM iodoacetamide (room temperature, in dark, 30 minutes). Protein content was extracted by methanol-chloroform precipitation and subsequent ice-cold acetone washes. Protein pellets were resuspended in 8 M urea, 50 mM HEPES (pH 8.5) buffer and protein concentrations were measured by BCA assay. […]
6 μL of each sample was separated by reversed phase chromatography using an EASY-Spray C18 column (2 μm particle size, 500 mm length×75 μm ID) mounted in an EASY-nLC 1200 LC pump coupled to an Orbitrap Fusion Lumos Tribid mass spectrometer. […] TMT reporter ion intensities were quantified by extracting the signal-to-noise ratio for each. […]

The next assay has as its target EGFR L858R (Homo sapiens, UniProt P00533, L858R). Briefly: Western blot NCI-H3255, Compound 1 with or without osimertinib: EGFR-L858R. The note with it: NCI-H3255, six hours, 0-1,500 nM, presence and absence of 1,500 nM osimertinib. The assay is classed as cell-based. From the text: The compound bearing solutions were formulated to achieve a 0.1% final concentration of DMSO. […] Antibodies used in western blot were purchased from the following vendors: EGFR-L858R specific antibody (CST 3197), pY1068 EGFR (CST 2234), pERK (CST 4370), ERK (CST 4695), vinculin (Millipore 05-386).
(In western blotting, separated proteins are transferred to a membrane and probed.)

For the compound `O=C1CC[C@H](Nc2ccc(N3CCC(O)(CC(=O)N4CC5(C4)CN(c4ccc(-c6cc(F)c7c(c6)C(=O)N(C(C(=O)Nc6nccs6)c6ncn8c6CCC8)C7)cc4)C5)CC3)c(F)c2)C(=O)N1` (stereo partly drawn) [Compound 1, 2-(6,7-dihydro-5H-pyrrolo[1,2-c]imidazol-1-yl)-2-[6-[4-[2-[2-[1-[4-[[(3S)-2,6-dioxo-3-piperidyl]amino]-2-fluoro-phenyl]-4-hydroxy-4-piperidyl]acetyl]-2,6-diazaspiro[3.3]heptan-6-yl]phenyl]-4-fluoro-1-oxo-isoindolin-2-yl]-N-thiazol-2-yl-acetamide], on mutant EGFR-L858R-T790M (after a single oral dose, NCI-H1975 tumors), the “mutant EGFR degraded in vivo” value is given as “up to 85%”. Besides, at mutant EGFR-L858R-T790M (single PO dose 10, 25 or 50 mg/kg, 4, 6 and 12 hours), the “mutant EGFR-L858R protein expression in tumors” value was “potent EGFR degradation”. In the assay with NCI-H1975 cells, the “degradation selectivity for mutant EGFR-L858R over non-EGFR proteins” value was “highly selective”. Moreover, the “EGFR-L858R degradation (western blot)” value at EGFR L858R is given as “efficiently degraded”.
